Assay results taken from patent US10335382B2, “Use of hydrogen sulfide synthesis inhibitors for cancer therapy” (THE BOARD OF REGENTS OF THE UNIVERSITY OF TEXAS SYSTEM, priority 2013, dated 2019).
Structures can show the parent of a compound that is named as a salt.

What follows are molecules tested against T1, CBS (Homo sapiens, UniProt P35520) (assay: CBS inhibitor screen: H2S production by recombinant CBS (methylene blue assay)). Settings: 100 μM; homocysteine-induced H2S production; LOPAC library screen.
T1 sequence (P35520 1-551): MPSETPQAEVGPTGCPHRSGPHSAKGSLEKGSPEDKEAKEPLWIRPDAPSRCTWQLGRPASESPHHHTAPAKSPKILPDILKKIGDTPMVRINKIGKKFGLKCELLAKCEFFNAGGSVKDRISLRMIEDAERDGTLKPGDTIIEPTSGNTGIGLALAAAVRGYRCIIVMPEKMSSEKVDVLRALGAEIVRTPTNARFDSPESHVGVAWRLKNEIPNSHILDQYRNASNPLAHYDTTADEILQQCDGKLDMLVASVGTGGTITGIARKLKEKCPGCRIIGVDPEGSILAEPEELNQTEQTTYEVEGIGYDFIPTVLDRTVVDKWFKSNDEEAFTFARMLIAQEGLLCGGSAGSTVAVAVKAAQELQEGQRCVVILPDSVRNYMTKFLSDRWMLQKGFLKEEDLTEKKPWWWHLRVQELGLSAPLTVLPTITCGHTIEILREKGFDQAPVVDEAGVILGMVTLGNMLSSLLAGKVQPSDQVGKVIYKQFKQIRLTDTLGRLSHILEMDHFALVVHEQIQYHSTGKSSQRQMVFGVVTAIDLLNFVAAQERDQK
Assay type: biochemical
Design: These studies used full-length human CBS enzyme; made in house; host or cells: E. coli BL21 (DE3) Codon Plus
Source text: Studies have been performed characterizing, in detail, the specificity and selectivity of all known H2S biosynthesis inhibitors, using recombinant CBS and CSE enzymes. These studies used full-length human CBS enzyme, and a colorimetric ‘capture’ reaction of the H2S produced by these enzymes, an assay generally known as the ‘methylene blue assay’. This assay is used in a 96-well plate format, as well as in combination with a second screening method based on a fluorescent dye.
Human recombinant CBS is expressed as described (Asimakopoulou et al, (2013) Br J Pharmacol. 169(4):922-32). A library of pharmacologically active compounds (e.g., LOPAC library, Sigma; 1240 compounds) is tested on homocysteine-induced H2S production. In certain aspects the assay is in a 96-well format. In certain aspects H2S production is measured by the methylene blue assay (Asimakopoulou et al., (2013) Br J Pharmacol. 169(4):922-32).
Plasmids, bacterial strains and media. E. coli BL21 (DE3) Codon Plus is used as a host strain to express recombinant human CSE or CBS. CSE cDNA was cloned into pGEX-4T3 and CBS into pGEX-Kg to create N-terminal GSH-S-transferase (GST) fusion proteins. The expression vectors were transformed and plated on LB-agar plates, supplemented with ampicillin (100 μg/mL).
The expression and purification of CSE and CBS is performed as described previously with modifications (Frank et al., (2008) Arch Biochem Biophys 470:64-72; Huang et al., (2009) J Mol Biol 396: 708-18). Briefly, BL21(DE3) Codon Plus cells containing either the expression vector pGEX-4T3/GST-CSE or pGEX-Kg/GST-CBS are grown at 37° C. and 180 r.p.m. in LB broth medium containing 100 μg/mL ampicillin to an absorption of 0.6-0.8 at 600 nm. In addition, 0.3 mM d-ALA is added to the culture containing pGEX-Kg/GST-CBS. Then protein expression is induced by addition of 0.1 mM IPTG. Cells containing pGEX-4T-3/GST-CSE are incubated overnight at 18° C., whereas cells containing pGEXKg/GST-CBS are incubated overnight at 30° C. Culture is then centrifuged at 4° C. and 5000×g for 10 min and the cell pellet was resuspended in PBS (140 mM NaCl, 2.7 mM KCl, 10 mM Na2HPO4, 1.8 mM KH2PO4, pH 7.8) and stored at −20° C. overnight. After thawing, the suspension is sonicated in lysis buffer containing PBS and protease inhibitor cocktail for GST-CSE and PBS, 5 mM DTT, 1% Triton X-100, […] and protease inhibitor cocktail for GST-CBS. After centrifugation at 4° C. for 30 min, the soluble fraction containing either the GST-CSE or the GST-CBS recombinant protein is loaded onto a GSTrap FF 1 mL affinity column that has been equilibrated with binding buffer PBS. The column was consecutively washed with five column volumes of binding buffer. Proteins attached to the column, including GST-CSE or GST-CBS recombinant proteins, are eluted with five column volumes of elution buffer (50 mM Tris-HCl, 10 mM reduced GSH, pH 8.0) and then dialysed and concentrated in 10 mM sodium phosphate buffer pH 8.2 and DTT 1 mM. The purity of the recombinant enzymes was checked by SDS-PAGE on 12% polyacrylamide gels after staining of protein bands with Coomassie Blue R-250. Protein concentration was determined using the DC protein assay kit.
H2S determination is performed according to Stipanuk and Beck ((1982) Biochem J 206:267-77) with some modifications. In the case of the CSE enzyme, an assay consist of a 100 μL reaction mixture containing 5 μg of the purified CSE enzyme, 0.01 mM PLP, 1 mM L-cys, and 50 mM sodium phosphate buffer pH 8.2. For the CBS enzyme, the reaction mixture contains the same as for the CSE plus 1 mM homocysteine. The inhibitors can be added to the reaction before L-cys is added to the solution. Reactions are initiated by transferring the reaction solutions from ice to a 37° C. shaking water bath. After incubation at 37° C. the reaction is terminated by adding 1% ZnAc to trap H2S followed by 10% TCA to precipitate proteins. […]
With NC(Cc1cc(O)c(O)cc1O)C(=O)O (racemic) [6-Hydroxy-DL-DOPA] the “Inhibition of CBS activity at 100 μM” value was 77%.
Cl.NC[C@@H]1O[C@H](C23CC4CC(CC(C4)C2)C3)Cc2c1ccc(O)c2O [A-77636 hydrochloride] was tested, and the “Inhibition of CBS activity at 100 μM” value was 30%.
For C[n+]1c2cc(N)ccc2cc2ccc(N)cc21 [Acriflavinium], the “Inhibition of CBS activity at 100 μM” value was 64%.
In the case of CN1CC[C@@]2(C)c3cc(O)ccc3N(C)[C@@H]12.O=C(O)/C=C/C(=O)O [Eseroline fumarate], the “Inhibition of CBS activity at 100 μM” value is reported as 60%.
O=C1Nc2ccc(I)cc2/C1=C/c1cc(Br)c(O)c(Br)c1 [GW5074] was tested, and the “Inhibition of CBS activity at 100 μM” value was 87%.
In the case of CN(N=O)c1ccc(O)c(O)c1 [Me-3,4-dephostatin], the “Inhibition of CBS activity at 100 μM” value is reported as 85%.
CC[N+](C)(CC)CCC[n+]1c(-c2ccccc2)c2cc(N)ccc2c2ccc(N)cc21.[I-].[I-] [Propidium iodide] was tested, and the “Inhibition of CBS activity at 100 μM” value was 41%.

Same assay, conditions: 100 μM; homocysteine-induced H2S production; LOPAC library screen; read-out: Inhibition of CBS activity at 100 μM
With COC1=C(OC)C(=O)c2ccccc2C1=O [2,3-Dimethoxy-1,4-naphthoquinone] the inhibition at 100 µM was 98%.
O=C(O)C1=CC(=C(c2ccc(O)c(C(=O)O)c2)c2ccc(O)c(C(=O)O)c2)C=CC1=O [Aurintricarboxylic acid] showed an inhibition at 100 µM of 75%.
For C=C(c1ccc(C(=O)O)cc1)c1cc2c(cc1C)C(C)(C)CCC2(C)C [Bexarotene], the inhibition at 100 µM was 58%.
C=C1CC[C@H](O)C/C1=C/C=C1\CCC[C@]2(C)[C@@H]([C@H](C)CCCC(C)(C)O)CC[C@@H]12 [Calcifediol] gave an inhibition at 100 µM of 32%.
Molecule C[C@@](Cc1ccc(O)c(O)c1)(NN)C(=O)O [Carbidopa] has an inhibition at 100 µM of 45%.
With Cc1cc(C(C#N)c2ccc(Cl)cc2)c(Cl)cc1NC(=O)c1cc(I)cc(I)c1O (centres unmarked) [Closantel] the inhibition at 100 µM was 72%.
Molecule C[C@@H](N)[C@H]1CC[C@H](C(=O)Nc2ccncc2)CC1 [Compound Y-27632] has an inhibition at 100 µM of 94%.
For CN(C)[C@@H]1C(O)=C(C(N)=O)C(=O)[C@@]2(O)C(O)=C3C(=O)c4c(O)ccc(Cl)c4[C@@H](O)[C@H]3C[C@@H]12 [Demeclocycline hydrochloride], the inhibition at 100 µM was 96%.
In the case of COc1cccc2c1C(=O)c1c(O)c3c(c(O)c1C2=O)C[C@@](O)(C(=O)CO)C[C@@H]3O[C@H]1C[C@H](N)[C@H](O)[C@H](C)O1 [Doxorubicin], the inhibition at 100 µM is reported as 52%.
With C[C@H]1c2cccc(O)c2C(=O)C2=C(O)[C@]3(O)C(=O)C(C(N)=O)=C(O)[C@@H](N(C)C)[C@@H]3[C@@H](O)[C@@H]21 [Doxycycline] the inhibition at 100 µM was 57%.
C[C@]12CC[C@@H]3c4ccc(O)cc4CC[C@H]3[C@@H]1CC[C@@H]2O [Estradiol] gave an inhibition at 100 µM of 53%.
For CC(C)(Sc1ccc(CCN(CCCCC2CCCCC2)C(=O)NC2CCCCC2)cc1)C(=O)O [GW7647], the inhibition at 100 µM was 73%.
Molecule CC[C@H](c1ccc(O)cc1)[C@@H](CC)c1ccc(O)cc1 [Hexestrol] has an inhibition at 100 µM of 50%.
With CC(C)C(=O)c1c(C(C)C)nn2ccccc12 [Ibudilast] the inhibition at 100 µM was 30%.
For C[C@H](CCC(=O)O)[C@H]1CC[C@H]2[C@@H]3CC[C@@H]4C[C@H](O)CC[C@]4(C)[C@H]3CC[C@]12C [Lithocholic acid], the inhibition at 100 µM was 42%.
Molecule CCC1(c2ccccc2)NC(=O)N(C)C1=O (centres unmarked) [Mephenytoin] has an inhibition at 100 µM of 32%.
In the case of CN1CC[C@@]2(C)c3cc(OC(=O)Nc4ccccc4)ccc3N(C)[C@@H]12 [Phenserine], the inhibition at 100 µM is reported as 53%.
Work on O=C(c1ccc(OCCN2CCCCC2)cc1)c1c(-c2ccc(O)cc2)sc2cc(O)ccc12 [Raloxifene] yielded an inhibition at 100 µM of 60%.
CC1=C(/C=C/C(C)=C/C=C/C(C)=C/C(=O)O)C(C)(C)CCC1 [Retinoic acid] showed an inhibition at 100 µM of 43%.
With CC(C)=CC[C@@H](O)C1=CC(=O)c2c(O)ccc(O)c2C1=O [Shikonin] the inhibition at 100 µM was 51%.
Molecule Cc1ccc(C(=O)Nc2ccc(S(=O)(=O)O)c3cc(S(=O)(=O)O)cc(S(=O)(=O)O)c23)cc1NC(=O)c1cccc(NC(=O)Nc2cccc(C(=O)Nc3cc(C(=O)Nc4ccc(S(=O)(=O)O)c5cc(S(=O)(=O)O)cc(S(=O)(=O)O)c45)ccc3C)c2)c1 [Suramin sodium] has an inhibition at 100 µM of 57%.
In the case of CN(C)[C@@H]1C(O)=C(C(N)=O)C(=O)[C@@]2(O)C(O)=C3C(=O)c4c(O)cccc4[C@@](C)(O)[C@H]3C[C@@H]12 [Tetracycline], the inhibition at 100 µM is reported as 43%.
Work on Cc1c(C)c2c(c(C)c1O)CCC(C)(COc1ccc(CC3SC(=O)NC3=O)cc1)O2 (centres unmarked) [Troglitazone] yielded an inhibition at 100 µM of 30%.
With COc1cc(C(=O)NS(=O)(=O)c2ccccc2C)ccc1Cc1cn(C)c2ccc(NC(=O)OC3CCCC3)cc12 [Zafirlukast] the inhibition at 100 µM was 81%.

Same assay, conditions: read-out: Inhibition of CBS activity at 100 μM
Molecule CC(=O)c1c(O)c(C)c(O)c(Cc2c(O)c3c(c(C(=O)/C=C/c4ccccc4)c2O)OC(C)(C)C=C3)c1O [Rottlerin] has an inhibition at 100 µM of 96%.
